TGI data for 8 molecules are collected here from PubChem BioAssay (NCI).

Holding throughout (assay): inhibition of tumour cell growth, NCI panel, 48 h
For experiment [1], the system named is HL-60(TB) leukemia.
In experiment [2] the test system is UO-31 renal.
The test system of experiment [3] is HT29 colon.
The subject of experiment [4] is TK-10 renal.
Experiment [5] deals with SNB-19 CNS.
The subject of experiment [6] is CCRF-CEM leukemia.
For experiment [7], the system named is OVCAR-4 ovarian.
Experiment [8] deals with OVCAR-8 ovarian.
The subject of experiment [9] is MALME-3M melanoma.
The subject of experiment [10] is MDA-MB-231 breast.
Experiment [11] concerns COLO 205 colon.
Experiment [12] concerns MOLT-4 leukemia.
Experiment [13] relates to U251 CNS.
Experiment [14] relates to SN12C renal.
Experiment [15] has as its system NCI-H522 lung.
Experiment [16] relates to K-562 leukemia.
The test system of experiment [17] is IGROV1 ovarian.
The test system of experiment [18] is MDA-MB-435.

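In this assay, cells in 96-well plates receive the compound at five concentrations for 48 hours. Endpoints are linearly interpolated between the surrounding concentrations. At the TGI there is no net growth.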

As to `CC1(C)c2ccccc2C(=O)C12CCC(=O)CC2`, the TGI in [1], in experiment [2], in experiment [3], in experiment [4], in experiment [5] and in experiment [6] was over 100 µM in each case. Also, the TGI in experiment [7], in [8], in experiment [9], in [10], in experiment [11] and in experiment [12] was over 100 µM each time. For the same molecule, the TGI in [13], in experiment [14], in experiment [15], in experiment [16] and in experiment [17] was over 100 µM in each case.
Consider `CO[C@H]1[C@@H](O)[C@@H](C)O[C@@H](O[C@H]2CC[C@@]3(C)[C@H](CC[C@@H]4[C@@H]3CC[C@]3(C)[C@@H](C5=CC(=O)OC5)[C@@H](OC(C)=O)C[C@]43O)C2)[C@@H]1O`, for which the TGI came to 0.332 µM in experiment [1]; 0.0686 µM in experiment [2]; 0.209 µM in [3]; 0.052 µM in experiment [4]; 0.507 µM in experiment [5]; 0.127 µM in experiment [7]. In addition, the TGI in experiment [8] turned out to be 0.152 µM; in experiment [9], 0.0445 µM; in [10], 0.972 µM; in experiment [11], 0.447 µM; in experiment [13] it was 0.186 µM; in experiment [18], 0.407 µM. In addition, the TGI came out at 0.0368 µM in experiment [15], 0.756 µM in experiment [16] and 0.772 µM in experiment [17].
Consider `CCC1c2[nH]c3ccccc3c2C[C@H]2C(=O)NC(COC(C)(C)C)C(=O)N12` (some centres not stated), for which the TGI in experiment [1] was 60.9 µM; in experiment [2], over 100 µM; in experiment [3], over 100 µM; in experiment [4], over 100 µM; in [5], over 100 µM; in [7], over 100 µM. Also, the TGI was over 100 µM in experiment [8]; 94.7 µM in experiment [9]; over 100 µM in experiment [10]; 37.6 µM in experiment [11]; 98.5 µM in experiment [12]; over 100 µM in [13]. Besides, the TGI in experiment [14], in experiment [18], in experiment [15], in [16] and in experiment [17] was over 100 µM throughout.
Take `CCOC(=O)C1(C(=O)OCC)CN(CC)CN(c2ccccc2)C1`: the TGI in [1] is 50.1 µM; in experiment [2], 46.6 µM; in experiment [3], 37.8 µM; in [4], 33.1 µM; in [5] it was over 100 µM; in [6], 59.1 µM. For the same molecule, the TGI in experiment [7] is 49.1 µM; in experiment [8] it was 47.4 µM; in [9], 69.2 µM; in experiment [11], 34.8 µM; in experiment [12] it was 40.4 µM; in experiment [14], over 100 µM. Further, the TGI in [18] is 37.3 µM; in experiment [15] it was 56.1 µM; in [16], over 100 µM; in experiment [17] it was 39.8 µM.
In the case of `COc1cc(/C=C2\C[C@H]3[C@@H]4CC=C5C[C@@H](O)CC[C@]5(C)[C@H]4CC[C@]3(C)C2=O)cc(OC)c1OC`, the TGI in [1] was 2.25 µM; in [2] it was over 100 µM; in experiment [3], 47.7 µM; in experiment [4], over 100 µM; in experiment [5], over 100 µM; in experiment [7] it was 96.6 µM. Moreover, the TGI in [8] is over 100 µM; in experiment [9] it was over 100 µM; in [10], 81.1 µM; in experiment [11], 54.9 µM; in experiment [12], 68.4 µM; in experiment [13] it was over 100 µM. Further, the TGI was over 100 µM in experiment [14]; over 100 µM in experiment [18]; 67.8 µM in experiment [15]; over 100 µM in experiment [16]; over 100 µM in experiment [17].
`CC(C)CC1[C@@H](OCc2ccccc2)COS(=O)N1Cc1ccccc1` (some centres not stated): the TGI was over 100 µM in experiment [2]; 40.2 µM in experiment [3]; over 100 µM in [4]; over 100 µM in experiment [5]; over 100 µM in [6]; over 100 µM in experiment [7]. For the same molecule, the TGI is over 100 µM in experiment [8]; 72.9 µM in [9]; over 100 µM in experiment [10]; over 100 µM in [11]; over 100 µM in [12]; over 100 µM in [13]. For the same molecule, the TGI in [14], in experiment [18], in experiment [16] and in experiment [17] was over 100 µM throughout.
Take `CN(C)C1=Nc2ccccc2C(=S)N2CSCC12` (configuration not stated): the TGI in experiment [2] is over 100 µM; in experiment [3], over 100 µM; in [4], over 100 µM; in experiment [5] it was over 100 µM; in [6], 45.1 µM; in experiment [7] it was over 100 µM. In addition, the TGI is over 100 µM in experiment [8]; 51.8 µM in experiment [9]; over 100 µM in [10]; 52 µM in [11]; 54.1 µM in experiment [12]; over 100 µM in [13]. Moreover, the TGI was over 100 µM in [14]; over 100 µM in experiment [18]; 29 µM in experiment [15]; over 100 µM in [16]; 52.3 µM in experiment [17].
In the case of `CCN(CC)CCn1nc(N)c2nc3cc(Cl)ccc3nc21`, the TGI in experiment [1], in experiment [2], in experiment [3], in experiment [4], in experiment [5] and in experiment [7] was over 100 µM throughout. Also, the TGI in experiment [8], in [9], in experiment [10], in [11], in [12] and in experiment [13] was over 100 µM in each case. In addition, the TGI in experiment [14] was over 100 µM; in [18] it was over 100 µM; in experiment [15] it was over 100 µM; in [16], over 100 µM; in experiment [17], 52.8 µM.
